# Assay: Binding affinity to human 6His-thr cIAP1 BIR3 (253 to 363) domain expressed in Escherichia coli measured after 105 mins in dark by time-resolved fluorescence laser-equipped multimode plate reader
row,IC50 [nM],Compound
1,7.9,CN[C@@H](C)C(=O)N[C@H](C(=O)N1CCC[C@H]1c1nc(C(=O)c2ccc(F)cc2)cs1)C1CCN(C(=O)c2cnc(N3CCN(CCCOc4cc5ncnc(Nc6n[nH]c(C)c6C)c5cc4S(=O)(=O)C(C)(C)C)CC3)cn2)CC1
2,5,Cc1[nH]nc(Nc2ncnc3cc(OCCCN4CCN(C(=O)c5cnc(N6CCN(C[C@H]7CN[C@H](C)CN7CC(=O)N7CC(C)(C)c8c7cc(Cc7ccc(F)cc7)c(=O)n8C)[C@H](C)C6)nc5)CC4)c(S(=O)(=O)C(C)(C)C)cc23)c1C

# — BindingDB's records for doi:10.1021/acs.jmedchem.1c01118 (Glaxosmithkline, 2021)
